These results are taken from US20050054620A1, “Paricalcitol as a chemotherapeutic agent” (priority 2003, published 2005).

Format in all cases: cell-based, human
The test system of test [1] is HL-60 cells. The experiment in a line: Western blot of cell lysates. The settings on record: for phosphorylation of Rb / expression of Bax / expression of C/EBPβ: 3 days; for expression of Bax / expression of C/EBPβ / expression of phosphorylated-ERK: paricalcitol 0.01 μM, arsenic trioxide 0.8 μM; for expression of phosphorylated-ERK: peak after 1 day. The protocol:
(§1) Western blot analysis was used to determine the levels of proteins involved in cell cycle and differentiation. For western blot analysis, cells were washed twice in PBS, suspended in lysis buffer [50 mM Tris (pH 8.0), 150 mM NaCl, 0.1% SDS, 0.5% sodium deoxycholate, 1% NP40, […] phenylmethylsulfonyl fluoride, […] aprotinin, […] pepstatin, and […] leupetin] and placed on ice for 30 min. After centrifugation at 15,000×g for 15 min at 4° C., the suspension was collected. Protein concentrations were quantitated using the Bio-Rad assay (Bio-Rad Labolatories, Hercules, Calif.). Whole lysates ([…]) were resolved by 4-15% SDS polyacrylamide gel, transferred to an immobilon polyvinylidene difuride membrane (Amersham Corp., Arlington Heights, Ill.), and probed sequentially with a number of antibodies (p21WAF1, p27KIP1, PTEN, and GAPDH, Santa Cruz Biotechnology Inc., Santa Cruz, Calif.). The blots were developed using the Supersignal West Pico Chemiluminescent Substrate Kit (Pierce, Rockford, Ill.).
(§2) Western blot analysis was performed as follows: cells were washed twice in PBS, suspended in lysis buffer (50 mM Tris at pH 8.0, 150 mM NaCl, 0.1% SDS, 0.5% sodium deoxycholate, 1% Nonidet P-40, phenylmethylsulfonyl fluoride at 100 μg/mL, aprotinin at 2 μg/mL, pepstatin at 1 μg/mL, and leupetin at 10 μg/mL), and placed on ice for 30 minutes. After centrifugation at 15,000×g for 15 minutes at 4° C., the suspension was collected. Protein concentrations were quantitated by using the Bio-Rad protein Assay Dye Reagent Concentrate (Bio-Rad Laboratories, Hercules, Calif.) according to the manufacture's recommendation. Whole cell lysates (40 μg) were resolved by SDS-polyacrylamide gel electrophoresis in a 4%-15% gel, transferred to a polyvinylidene difuride membrane (Immobilon, Amersham Corp., Arlington Heights, Ill.), and probed sequentially with antibodies against the following proteins: VDR, RXR, CEBPβ, Rb, Bcl-2, Bcl-XL, Bax, p-ERK, RARA, GAPDH (Santa Cruz Biotechnology Inc., Santa Cruz, CA). The blots were developed using the Supersignal West Pico Chemiluminescent Substrate Kit (Pierce, Rockford, Ill.).

Another test concerns NB-4 cells. The experiment in a line: Western blot of cell lysates. The protocol:
as §1, §2

For a further test, the system named is HT-29 cells. The test can be described thus: Western blot of cell lysates. The settings on record: 10^−7M, 72 hrs. The protocol: Western blot analysis was used to determine the levels of proteins involved in cell cycle and differentiation. […] After centrifugation at 15,000×g for 15 min at 4° C., the suspension was collected. Protein concentrations were quantitated using the Bio-Rad assay (Bio-Rad Labolatories, Hercules, Calif.). […] The blots were developed using the Supersignal West Pico Chemiluminescent Substrate Kit (Pierce, Rockford, Ill.). In FIG. 4B, HT-29 cells were exposed to either paricalcitol (10^−7M) or 1,25(OH)2D3(10^−7M). Cell lysates were prepared after 72 hrs of culture and analyzed by Western blot. The Western blot was probed sequentially with antibodies for p27KIP1, p21WAF1, cyclin D1, c-myc and E-Cadherin (antibodies from Santa Cruz Biotechnology) as described in Example II. Control cells were treated with vehicle alone. The quantity of protein was normalized by comparison to the amount of GAPDH. In FIG. 4C, HT-29 and SW837 cells were cultured with either paricalcitol (10^−7M) or 1,25(OH)2D3 (10^−7M) for 72 hrs. Cell lysates were prepared and analyzed by Western blot which was probed sequentially with antibodies to COX-1 and COX-2 (Santa Cruz Biotechnology). Control cells were treated with vehicle alone. The amount of protein was normalized by comparison to the quantity of GAPDH.

Test [2] relates to HL-60 cells. The test can be described thus: NBT reduction (monocytic differentiation). The settings on record: paricalcitol 0.01 μM, arsenic trioxide 0.8 μM, 3 days.
The test system of the next test is PML-RARα fusion protein. The test can be described thus: Western blot for PML-RARα in PR9 cells with zinc. The protocol:
(A) NB-4 myeloid leukemia cell lines were treated with paricalcitol (0.1 μM) and/or arsenic trioxide (0.6 μM) for 3 days. Control cells were treated with vehicle alone. Cell lysates were made and used for Western blot which was probed sequentially with antibodies to RARA to detect the fusion protein PML-RARα. (B) U937 cells were stably transfected with either the control MT vector (U937-PMT) or the PML-RARα cDNA under the control of the Zn2^+-inducible murine metallothionein 1 promoter (PR9). Cells were treated either with (+) or without (−) Zn for 2 days. Paricalcitol and/or arsenic trioxide of the indicated doses were added to the cells. […] (C) U937-PMT and PR9 cells were treated either with or without Zn and with paricalcitol, and/or arsenic trioxide as indicated for 3 days, and CD14 expression was measured by flow cytometry.
Western blot analysis was performed as follows: cells were washed twice in PBS, suspended in lysis buffer (50 mM Tris at pH 8.0, 150 mM NaCl, 0.1% SDS, 0.5% sodium deoxycholate, 1% Nonidet P-40, phenylmethylsulfonyl fluoride at 100 μg/mL, aprotinin at 2 μg/mL, pepstatin at 1 μg/mL, and leupetin at 10 μg/mL), and placed on ice for 30 minutes. […] Protein concentrations were quantitated by using the Bio-Rad protein Assay Dye Reagent Concentrate (Bio-Rad Laboratories, Hercules, Calif.) according to the manufacture's recommendation. […]

`C[C@H](/C=C/[C@H](C)C(C)(C)O)[C@H]1CC[C@H]2/C(=C/C=C3C[C@@H](O)C[C@H](O)C3)CCC[C@]12C` [paricalcitol, 19-nor-1,25, (OH)2D3]: in the test on HL-60 cells [1], the “expression of VDR and RXR” value was “not substantially changed”; the “phosphorylation of Rb” value is on record as “increased”; the “expression of Bax” value is given as “not changed”; the “expression of C/EBPβ” value is given as “increased”. For the same compound, the “expression of phosphorylated-ERK” value in the test on HL-60 cells [1] is “increased”. For the same compound, in the test with HL-60 cells [1] (10^−7M, 72 hr), the “induction of PTEN” value is given as 7 fold, the “induction of p21WAF1” value is reported as “approximately 7 fold” and the “induction of p27KIP1” value is reported as “about 6 fold”. The “induction of PTEN” value with NB-4 cells (10^−7M, 72 hr) was 25 fold. Moreover, in the test on HT-29 cells, the “decrease of COX-2 expression” value turned out to be 40%, the “decrease of c-myc expression” value is about 40%, the “decrease of cyclin D1 expression” value is “about 50%” and the “effect on COX-1 expression” value is on record as “without affecting”. For the same compound, in the test with HT-29 cells, the “increase of E-cadherin” value is on record as “about 6 fold”, the “increase of p21WAF1 protein level” value was “about 5 fold” and the “increase of p27KIP1 protein level” value is listed as about 6 fold. Further, the “monocytic differentiation by NBT reduction” value in the test with HL-60 cells [2] is “increased”.
As for arsenic trioxide, in the test on HL-60 cells [1], the “expression of VDR and RXR” value is listed as “not substantially changed”; the “phosphorylation of Rb” value is listed as “increased”; the “expression of Bax” value is given as “not changed”; the “expression of C/EBPβ” value is “also increased its expression level”. Further, the “expression of phosphorylated-ERK” value with HL-60 cells [1] is “also increased”. For the same compound, the “protein level of PML-RAR” value in the test with NB-4 cells (arsenic trioxide 0.6 μM, paricalcitol 0.1 μM, 3 days) is “decreased the protein level of PML-RAR”. The “monocytic differentiation by NBT reduction” value with HL-60 cells [2] is listed as “little effect on differentiation”. In the test with PML-RARα fusion protein (PR9 cells with zinc), the “concentration at which PML-RARα protein expression was barely detectable” value is “over 0.4 μM”. Besides, the “protein level of PML-RARa induced by zinc” value in the test with PML-RARα fusion protein (PR9 cells, dose dependent) is reported as “decreased the protein level of PML-RARa”.
